Type in all cases: functional
Common to all, as to conditions: UTEX 1648, light or radiation study, read-out: GI

For experiment [1], the system named is Selenastrum capricornutum. The experiment in a line: Antialgal activity against Selenastrum capricornutum UTEX 1648 assessed as growth inhibition at 10 uM exposed to 150 uEs'-1m'-2 irradiation under 16 hrs light/8 hrs dark photoperiod conditions relative to control.
In experiment [2] the test system is Selenastrum capricornutum. Nature of the experiment: Antialgal activity against Selenastrum capricornutum UTEX 1648 assessed as growth inhibition at 50 uM exposed to 150 uEs'-1m'-2 irradiation under 16 hrs light/8 hrs dark photoperiod conditions relative to control.
Experiment [3] concerns Selenastrum capricornutum. Nature of the experiment: Antialgal activity against Selenastrum capricornutum UTEX 1648 assessed as growth inhibition at 5 uM exposed to 150 uEs'-1m'-2 irradiation under 16 hrs light/8 hrs dark photoperiod conditions relative to control.
The subject of experiment [4] is Selenastrum capricornutum. The experiment in a line: Antialgal activity against Selenastrum capricornutum UTEX 1648 assessed as growth inhibition at 0.1 mM exposed to 150 uEs'-1m'-2 irradiation under 16 hrs light/8 hrs dark photoperiod conditions relative to control.

Regarding `Cc1c(O)ccc2c1CCc1c(C)c(O)cc(CO)c1-2`, the inhibition of growth at 10 µM in experiment [1] was 10%. Besides, the inhibition of growth at 50 µM in experiment [2] was 40%. Besides, in experiment [3], the inhibition of growth at 5 µM came out at 4%. Moreover, the inhibition of growth at 100 µM in experiment [4] stood at 70%.
For `C=Cc1cc(CO)cc2c1-c1ccc(O)c(C)c1CC2` the same measures were 0%, 38%, 0% and 57%.
For the compound `C=Cc1c(CO)ccc2c1-c1ccc(O)c(C)c1CC2`, the inhibition of growth at 10 µM in experiment [1] turned out to be 5%. For the same compound, the inhibition of growth at 50 µM in experiment [2] was determined as 40%. The inhibition of growth at 5 µM in experiment [3] turned out to be 0%. Also, the inhibition of growth at 100 µM in experiment [4] came to 64%.
For `Cc1cc(CO)c2c(c1)CCc1c-2ccc(O)c1C` the same measures were 20%, 50%, 7% and 80%.
On to `COc1cc(CO)c2c(c1C)CCc1c-2ccc(O)c1C`, for which the inhibition of growth at 10 µM in experiment [1] is 18%. Also, the inhibition of growth at 50 µM in experiment [2] came to 55%. Moreover, in experiment [3], the inhibition of growth at 5 µM was found to be 0%. Further, the inhibition of growth at 100 µM in experiment [4] came to 80%.
`Cc1c(O)ccc2c1CCc1c(C)c(O)cc(C(C)O)c1-2` (stereo not drawn): the inhibition of growth at 10 µM in experiment [1] worked out at 20%. Further, in experiment [2], the inhibition of growth at 50 µM worked out at 52%. Moreover, the inhibition of growth at 5 µM in experiment [3] was 5%. The inhibition of growth at 100 µM in experiment [4] came out at 75%.
For `Cc1cc2c(c3c1OC(O)C3O)-c1ccc(O)c(C)c1CC2` (stereo not drawn), in that order: 0%, 10%, 0% and 20%.

The values are drawn from ChEMBL document CHEMBL1158871, “Minor Bioactive Dihydrophenanthrenes from Juncus effusus” (1997).
